Data reported in US6743423B1, “Use of adeno-associated viruses for decreasing the radiotherapy-induced or chemotherapy- induced resistance in cancer patients” (Deutsches Krebsforschungszentrum Stiftung des Offentlichen …, priority 1998, dated 2004).

Tests used:
Type in all cases: cell-based, human
[1] = tested on: NCI-H146; assay: MTT proliferation assay, SCLC cell line NCI-H146 (chemotherapeutic agents with or without AAV-2 infection); details: for Sensitization factor (A/Ao)* 10^4 Ip.AAV/Cell: AAV-2 infection 10^4 per cell vs mock infection
[2] = tested on: NCI-H446; assay: MTT proliferation assay, SCLC cell line NCI-H446 (chemotherapeutic agents with or without AAV-2 infection); details: for Sensitization factor (A/Ao)* 10^4 Ip.AAV/Cell: AAV-2 infection 10^4 per cell vs mock infection
Procedure: (§1) Small cell lung carcinoma cell lines (NCI-H69, NCI-H164, NCI-H209, and NCI-H446) (Cancer Res., 1980, 40, 3502-3507; Cancer Res., 1985, 45, 2913-2923) were cultured in RPMI-1640 medium (Eurobio, Raunheim, Germany). HeLa cells were cultured in DMEN (Eurobio, Raunheim, Germany). All growth media were supplemented with glutamine (Eurobio, 1%), antibiotics (penicillin and streptomycin) and 10% heat-inactivated fetal calf serum (PAA; Liz, Austria). The cultures were incubated at 37° C. in a damp atmosphere with 5% CO2 and tested for mycoplasma contaminations at regular intervals.
(§2) The adeno-associated virus type 2 (AAV-2) was replicated in HeLa cells using, adenovirus type 2 (Ad-2) as a helper. AAV was purified in a cesium-chloride gradient and titrated as described in J. Gen. Virol., 1994, 74, 2655-2662. The adenovirus type 2 inocula were clarified supernatants of Ad-2-infected HeLa cells.
(§3) The SCLC cells were suspended in PBS and incubated with purified AAV-2 in the indicated multiplicities of infection (MOI). […]
(§4) The proliferation of the SLCL cells after the infection with AAV-2 and/or treatment with chemotherapeutic agents was determined by the modified MTT test (J. Immunol. Methods, 1983, 56, 55-63). […] The precipitated proteins were pelleted by centrifugation (1000 rpm, 15 min), and 200 ul samples of the supernatant were measured to determine the optical density at 540 nm (OD540), OD690 being used as a reference and a Titertek Multiskan plus MKII densitometer being employed (Lab Systems, Finland).
(§5) The relative proliferation (A/Ao) was defined as the ratio of the absorption (A) measured in the supernatant of AAV-2-infected and/or pharmacon-treated cells, compared with the absorption measured for the supernatant of the mock-infected cells and untreated control cells (Ao). […]
(§6) The AAV-2-infected cells (MOI values as indicated) or mock-infected cells were placed in plates having 24 wells and treated with cisplatin. After six or eight days, the relative proliferation was determined. […]

[3] = tested on: NCI-H209; assay: MTT proliferation assay, SCLC cell line NCI-H209 (chemotherapeutic agents with or without AAV-2 infection); details: for Sensitization factor (A/Ao)* 10^4 Ip.AAV/Cell: AAV-2 infection 10^4 per cell vs mock infection
Procedure: as §1, §2, §3, §4, §5, §6

[4] = tested on: NCI-H69; assay: MTT proliferation assay, SCLC cell line NCI-H69 (chemotherapeutic agents with or without AAV-2 infection); details: AAV-2 infection 10^4 per cell vs mock infection
Procedure: as §1
The adeno-associated virus type 2 (AAV-2) was replicated in HeLa cells using, adenovirus type 2 (Ad-2) as a helper. […]
as §4, with “Finland). […]” for “Finland).”
as §6

[5] = cells treated only with cisplatin at IC50

`COc1cc([C@@H]2c3cc4c(cc3[C@@H](O[C@@H]3O[C@@H]5CO[C@@H](C)O[C@H]5[C@H](O)[C@H]3O)[C@H]3COC(=O)[C@H]23)OCO4)cc(OC)c1O` [Etoposide, etoposide] was tested, and the “Resistance/susceptibility of the cell line to the agent” value [1] was “highly susceptible”, the “Sensitization factor (A/Ao)* 10^4 Ip.AAV/Cell” value [1] was 1.38 and the “Sensitization factor (A/Ao)* 10^4 Ip.AAV/Cell” value [2] was 3.00. The “Sensitization factor (A/Ao)* 10^4 Ip.AAV/Cell” value [3] was 2.12 and the “Sensitization factor (A/Ao)* 10^4 Ip.AAV/Cell” value [4] was 1.30.

`N.N.[Cl][Pt][Cl]` [Cisplatin, cisplatin] was tested, and the “Sensitization factor (A/Ao)* 10^4 Ip.AAV/Cell” value [1] was 1.37, the “Sensitization factor (A/Ao)* 10^4 Ip.AAV/Cell” value [2] was 2.50 and the “Relative proliferation (A/Ao)” value [2, 5] was 0.59. The “Sensitization factor (A/Ao)* 10^4 Ip.AAV/Cell” value [3] was 2.33, the “Relative proliferation (A/Ao)” value [3, 5] was 0.5 and the “Sensitization factor (A/Ao)* 10^4 Ip.AAV/Cell” value [4] was 1.43.
